Measurements taken from US20230064978A1, “CYCLIC PEPTIDE RECEPTOR LANTHIONINE SYNTHETASE C-LIKE PROTEIN (LANCL) AND USES THEREOF” (LATERAL IP PTY LTD, priority 2019, published 2023).
Bridges are numbered along the chain shown (N, C = ends). Where no end group is shown, it is not given here.

Tests used:
A549 cells = assay: Confocal imaging of LAT9991F-PAL binding and LANCL1 co-localization, with siRNA knockdown and competitors, in A549 cells; assay type: cell-based; settings: for Competition of LAT9991F-PAL binding by excess competitor: competitor 25 μM
Method: (§1) A photoactivatable analog of LAT8881 (LAT9991F (SEQ ID NO:13)-PAL), was used to conduct the experiments. A549 or NCI-H358 cells were treated with LAT9991F-PAL at 2.5 μM during 30 minutes. Fluorescent signal was recorded after that LAT9991F-PAL was immobilized on its target(s) site by UV-crosslinking and the LAT9991F-PAL-target complexes were labeled with the green-fluorescent Alexa Fluor 488 alkyne dye by click-chemistry. Control cells were treated with the vehicle, dimethyl sulfoxide (DMSO), and with LAT9991F-PAL in combination with a large excess of the parent drug LAT8881 or other competitors, GSH, NSC61610 or ABA to evaluate, respectively, the non-specific fluorescent background and the specificity of the staining. For colocalization experiments, subsequently, immunofluorescence staining with an anti-LANCL1 or LANCL2 antibodies and an Alexa 568 (red) conjugated secondary antibody was performed. Images stacks of cells labeled with probes were collected and evaluated for the degree of colocalization of LAT9991F-PAL-target complexes and LANCL1 or LANCL2 using either the Measure Colocalization plugin in Metamorph or the JACoP plugin in ImageJ).
(§2) A549 or NCI-H358 cells (ATCC CCL-185 and ATCC CRL-5807, respectively) were cultured in appropriate medium containing 10% heat-inactivated FBS (Dutscher, #SV30160-036), 1% penicillin/streptomycin (Gibco, #15140-122) and maintained in a humidified 37° C. incubator with 5% CO2.
(§3) LAT9991F-PAL was dissolved in DMSO to make a 10 mM stock solution. Intermediate solutions at 25 μM and 2.5 μM were made in the culture medium from the 10 mM stock solutions of LAT8881 and LAT9991F-PAL, respectively. A two-fold dilution into PBS of each intermediate solution was used for cell treatment. A stock solution at 10 mM was prepared for the other competitors as GSH, NSC61610 and ABA. A final concentration at 25 μM was used for the assay.
(§4) A549 or NCI-H358 cells were seeded onto ibidiTreat Polymer Coverslips (Ibidi, #80826) at 2.5×10^5 cells/cm^2 in 200 μl of complete medium. After 24 hours, the medium was removed and cells were washed with PBS (Gibco, #10010049) and then pre-treated with the Taxol at 1 μM for 3 hours or with H2O2 25 μM for 2 hours. Cells were washed twice with PBS. Induced stress cells or control cells were then exposed to LAT9991F-PAL (2.5 μM) in PBS for 30 minutes, in the presence or absence of LAT8881 (25 μM), or the other compounds used as a competitor, and pre-incubated 10 minutes. After treatment, cells were washed with cold PBS and UV-irradiated (365 nm) in PBS for 20 min. After fixation with 4% paraformaldehyde and permeabilization (0.5% Triton/PBS) (Image-iT™ Fixation/Permeabilization Kit, ThermoFisher, #R37602), the bioorthogonal reaction with Alexa Fluor 488 Alkyne (1 μM) (ThermoFisher, #A10267) was performed at 25° C. using the Click-iT™ Cell Reaction Buffer Kit (ThermoFisher, #C10269) according to the manufacturer protocol. After click reaction, cells were washed twice with PBS, blocked with 3% BSA in PBS for 1 hour and stained with Hoechst 33342 dye (ThermoFisher, #H1399).
(§5) For colocalization experiments, cells were further incubated overnight at 4° C. with a mouse anti-LanCL1 antibody (Invitrogen, PAS-57-107) (dilution 1:1000) or LanCL2 (Atlas Antibodies HPA019711) (dilution 1:1000) in 3% BSA in PBS, washed twice with PBS, and then incubated respectively with a goat anti-mouse […] (Molecular Probes, #A21467) (dilution 1:800) for 1 h in 3% BSA in PBS. After three further washing steps with PBS, cells were embedded in Ibidi Mounting Medium (ibidi, #50001). The specimens were kept at 4° C. in the dark until analysis.
Images were acquired on an Axiovert200M (Zeiss) microscope using a CSU-W1 Yokogawa confocal unit. This microscope is equipped with a plan Apochromat X40 dry objective numerical aperture (NA) 0.95 and a Neofluar X100 oil immersion objective NA 1.45. Images were capture with an EMCCD camera (Prior, ProEM 1024×1024).

NCI-H358 cells = assay: Confocal imaging of LAT9991F-PAL binding and LANCL1 co-localization, with siRNA knockdown and competitors, in NCI-H358 cells; assay type: cell-based; settings: for Competition of LAT9991F-PAL binding by excess competitor: competitor 25 μM
Method: as §1, §2, §3
ibidiTreat Polymer Coverslips (Ibidi, #80826) were coated with serum during 1 hour at 37° C., followed by Laminin (100 μg\ml) (incubation for 1 hour at 37° C.) for NCI-H358 cells.
as §4, §5
Images were acquired on an Axiovert200M (Zeiss) microscope using a CSU-W1 Yokogawa confocal unit.

human recombinant LANCL1 = molecular target: T1, human recombinant LANCL1 (Homo sapiens, UniProt O43813); assay: In-gel fluorescence: photolabelling of recombinant LANCL1 with PAL probes, with or without excess competitor; assay type: binding; settings: for Inhibition of LAT9991-PAL binding to recombinant LANCL1 by excess competitor: probe LAT9991-PAL, excess unlabelled competitor
T1 construct: purchased ABCAM ab181923; host or cells: E. coli
Method: The in-gel fluorescence protocol can be briefly described as follows:
1. LANCL1 Labelling, Assay on 96 Well Plate, Volume of the Reaction 40 μl in PBS
3 μg/well of human recombinant LANCL1 (ABCAM catalog no. ab181923, 1 mg/ml; expressed in E. Coli and incorporating an N-terminal 23 amino acid hexaHis tag; UniProtKB/Swiss-Prot Accession no: O43813);
• Vehicle DMSO • ±LAT8881 (a cyclic peptide fragment of human growth hormone; SEQ ID NO:1) • SEQ ID NO:1) as competitor @ 25, 50, 100 or 200 μM, pre-incubation 10 min, 4 μl of a stock solution 10-fold concentrated • ±LAT9991-PAL, LAT7771-PAL or LAT9993-PAL probes @ 1 μM, incubation 30 min at room temperature on a plate agitator (protected from light), 4 μl of a stock solution @10 μM
• Irradiation @ 365 nm 20 min (4° C., on a support containing ice) Transfer 40 μl in a clean Eppendorf tube
• Reduction: DTT 10 mM, 30 min @ 56° C. • Alkylation: Iodoacetamide 30 mM, 45 min @ RT Click-iT AzideTamra of 60 μL samples
• Acetone Precipitation −20° C. ON • Dry pellet resuspended in 30 μL 1% SDS in 50 mM Tris-HCl pH 7.5 • Photolabeled LANCL1 was tagged with tetramethylrhodamine (TAMRA) azide @100 μM TAMRA azide by copper click chemistry using the Click-iT Protein Reaction Buffer Kit (ThermoFisher Scientific) during 30 minutes • Precipitation using the chloroform-methanol method, pellet was air-dried for 10 min at room temperature, resuspended in 30 μL SDS loading buffer (Bio Rad's XT Sample Buffer containing 2.5% v/v 2-mercaptoethanol) and heated (60° C., 30 min)
• SDS-PAGE (4-15% Criterion™ TGX Stain-Free™ Protein Gel, Bio Rad) • Analyzed by in-gel fluorescence scanning using a ChemiDoc™ MP Imaging System (Bio Rad) with a green LED light as an excitation source and a BP600/20 nm emission filter

[1] = tested on: tissue homogenates of nerve from neuropathic animals; assay: PAL cross-linking to nerve tissue homogenates and gel separation; assay type: binding
From the text: Using a ligand driven approach, the present inventors utilized the photo-activatable cross-linking PAL from Evotec A.G. (Photo-Activated Labelling) technology that derivatizes the active cyclic peptides to allow UV-induced cross-linking to binding targets (described herein as peptide/SEQ ID NO:X-PAL). This allows subsequent detection in cells, gels of tissue isolates or in pull-down of the peptide/target complex for sequencing by mass spectroscopy (PALMS).
LAT9991-PAL was cross-linked to tissue homogenates of nerve from neuropathic animals.

T1 sequence (O43813 with tags, fused parts or gaps): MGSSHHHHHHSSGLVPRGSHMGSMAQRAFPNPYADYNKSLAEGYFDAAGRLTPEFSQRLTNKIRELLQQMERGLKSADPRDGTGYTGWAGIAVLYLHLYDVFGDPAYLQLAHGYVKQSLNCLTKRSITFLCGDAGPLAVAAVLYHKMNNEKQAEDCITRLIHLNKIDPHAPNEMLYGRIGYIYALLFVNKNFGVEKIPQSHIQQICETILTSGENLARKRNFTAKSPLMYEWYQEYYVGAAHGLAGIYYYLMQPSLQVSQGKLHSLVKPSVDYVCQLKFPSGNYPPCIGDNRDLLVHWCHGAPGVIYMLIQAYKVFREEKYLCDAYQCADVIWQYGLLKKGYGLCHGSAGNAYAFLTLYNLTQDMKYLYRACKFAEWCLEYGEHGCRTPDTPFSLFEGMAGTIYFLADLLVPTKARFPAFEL

Compound	Competition of LAT9991F-PAL binding by excess competitor (A549 cells; SiLANCL1 A549 cells)	Competition of LAT9991F-PAL binding by excess competitor (NCI-H358 cells; SiLANCL1 NCI-H358 cells)	Inhibition of LAT9991-PAL binding to recombinant LANCL1 by excess competitor (human recombinant LANCL1)	further results
N[C@@H](CCC(=O)N[C@@H](CS)C(=O)NCC(=O)O)C(=O)O [glutathione, reference compound]	partially competed off	partially competed off	–	–
SCRSRPVESSCS [LAT9993S]	partially competed off	partially competed off	inhibited	–
LAT9993S-PAL: LAT9993S (SEQ ID NO:44) derivatized with the PAL photo-activatable cross-linking group (SCRSRPVESSCS; disulfide 2-11 (inferred); also: ['PAL photo-activatable cross-linking group, structure and site not given here'])	–	–	–	Binding of PAL probe to recombinant LANCL1 (human recombinant LANCL1; in-gel fluorescence after UV (365 nm) cross-linking): bound to recombinant LANCL1; Cross-linking of PAL probe to tissue homogenates of nerve from neuropathic animals [1]: shown to cross-link; Molecular weight ranges of targets stained after gel separation ([1]; PAL probe cross-linked to nerve homogenates): ˜12-15 kD, ˜37 kD and ˜50 kD
O=C(Nc1cccc(-c2nc3ccccc3[nH]2)c1)c1ccc(C(=O)Nc2cccc(-c3nc4ccccc4[nH]3)c2)cc1 [NSC61610, reference compound]	strongly competed off	strongly competed off	–	–
CRIIHNNNC [LAT7771]	partially competed off	partially competed off	inhibited	–
LAT9991F-PAL: A photoactivatable analog of LAT8881 (LAT9991F (SEQ ID NO:13)-PAL) (CRSVEGSCGF; disulfide 1-8 (inferred); also: PAL cross-linking group, site not given here)	–	–	–	Co-localization of LANCL1 and probe binding (A549 cells; A549 cells, confocal microscopy, probe 2.5 μM): co-localization; Co-localization of LANCL1 and probe after siRNA knockdown of LANCL1 (A549 cells; SiLANCL1 A549 cells): lost; Level of probe binding in siLANCL1 cells following induced oxidative stress (A549 cells; siLANCL1 A549 cells, H2O2 25 μM 2 hours or Taxol 1 μM 3 hours, vs SiControl): less intense as compared to control cells; Co-localization of LANCL1 and probe binding (NCI-H358 cells; NCI-H358 cells, confocal microscopy, probe 2.5 μM): co-localization; Co-localization of LANCL1 and probe after siRNA knockdown of LANCL1 (NCI-H358 cells; SiLANCL1 NCI-H358 cells): lost; Level of probe binding in siLANCL1 cells following stress (NCI-H358 cells; siLANCL1 NCI-H358 cells, vs control cells): less intense as compared to control cells
